Type in all cases: biochemical, Chlorella variabilis NC64A
Assay [1] deals with T1, alkane synthase activity of Chlorella homogenate (Chlorella variabilis, UniProt A0A248QE08).
T1 construct: Reaction mixtures contained 500 μL of each purification fraction; endogenous in cells; host or cells: Chlorella cells (homogenate, solubilized microsomal fraction, chromatography fractions)
The assay can be described thus: Alkane synthase activity assay on Chlorella homogenate and purification fractions (SPME, GC-MS). The following applies: for effect of added co-factor on alkane synthase activity: added in different combinations to the solubilized microsomal fraction. Here is the method:
Enzymatic assays were performed in transparent glass vials sealed using caps with septum. Reaction mixtures contained 500 μL of each purification fraction, 200 μM of perdeuterated palmitic acid (10 mM stock solution in ethanol) and 45 nmol hexadecane as internal standard (4.5 mM stock solution in chloroform). Vials were agitated at 120 rpm overnight at 25° C. under a white light (intensity 120 μmol photons m^−2s^−1). Reaction was stopped by the addition of 10 μL NaOH 10 M through the septum using a syringe. Hydrocarbons produced were analyzed by incubating in the headspace of the vial a solid phase microextraction (SPME) fiber (DVB PDMS fused silica, 65 μm double-polar, Supelco) mounted on a holder. After 15 min incubation at room temperature the SPME fiber was immediately inserted into the injector of the GC-MS and desorbed at 250° C. GC-MS analysis was carried out as described below.

Assay [2] concerns the target T2, Chlorella GMC oxidoreductase (Chlorella variabilis, UniProt A0A248QE08).
T2 construct: 6 His-tagged thioredoxin (N, cleaved yes); TEV protease-cleavage site (N, cleaved yes); made in house; host or cells: E. coli BL21-CodonPlus (DE3)-RIL
The assay can be described thus: Enzymatic assay with purified recombinant enzyme (GC-MS of products). The following applies: for conversion of substrate by the enzyme (product formed): purified recombinant enzyme, white light. How it is done: (§1) All assays were performed in transparent glass vials sealed using caps with septum. Optimum pH was determined using a Teorell Stenhagen universal buffer (33 mM citric acid monohydrate, 33 mM phosphoric acid, 100 mM NaOH, 16.7 mM of boric acid, pH 8.5 adjusted with 1N HCl). Other assays were performed in 100 mM Tris HCl pH 8.5, 100 mM NaCl. Reaction mixtures (500 μL) typically contained 160 nM purified enzyme (stock ? solution 2.5 mg ml^−1) and 400 μM substrate (stock solution 10 mM in ethanol). In some assays, a lipase was used with the alkane synthase. In this case, substrate was a triacylglycerol. Generally, samples were shaken at 200 rpm during 15 min under LED-made white light at 2000 μmol ? photons m^−2s^−1. After the incubations, samples were heated at 95° C. during 15 min to stop the enzymatic reaction. Samples were cooled down and internal standard (hexadecane) was added (45 nmol from a 4.5 mM stock solution in chloroform). NaOH was then added to the reaction mixture (10 μL from a stock solution of 10 M) and samples were vortexed for 5 min. Then 250 μL of hexane was added and samples were vortexed for 5 min to extract alkanes and alkenes. The hexane phase was collected by centrifugation and analyzed by GC-MS-FID. The analysis was done by direct injection of 100 μl of the headspace into a GC-MS. In FIG. 11 activity on 1-^13C-palmitate was monitored by release of ^13CO2 using membrane inlet mass spectrometry. Illuminations were provided by CBT-120 LEDs (Luminous, Billerica) either blue (peak at 460 nm, 25 nm FWHM), or red (peak at 635 nm, 15 nm FWHM) at an intensity of 850 μmol photons m^−2 s^−1.

The target of assay [3] is T2, Chlorella GMC oxidoreductase. Put plainly: 13CO2 release from 1-13C-palmitate with the purified enzyme (membrane inlet mass spectrometry). The settings on record: palmitic acid labelled with 13C on the carboxylic group. Here is the method: as §1, with “Then 250 μL of hexane was added and samples were vortexed for 5 min to extract alkanes and alkenes.” left out, “The analysis was done by direct injection of 100 μl of the headspace into a GC-MS.” left out, “Illuminations were provided by CBT-120 LEDs (Luminous, Billerica) either blue (peak at 460 nm, 25 nm FWHM), or red (peak at 635 nm, 15 nm FWHM) at an intensity of 850 μmol photons m^−2 s^−1.” left out
Online measurements of ^12CO2 (m/z=44) and ^13CO2 (m/z=45) were monitored using mass spectrometry (model Prima B, Thermo Scientific). […]

The record followed here is patent US11236367B2, “Fatty acid decarboxylase and its uses” (COMMISSARIAT A L'ENERGIE ATOMIQUE ET AUX ENERGIES …, priority 2016, dated 2022).

T1 sequence (A0A248QE08 61-654 limits assumed): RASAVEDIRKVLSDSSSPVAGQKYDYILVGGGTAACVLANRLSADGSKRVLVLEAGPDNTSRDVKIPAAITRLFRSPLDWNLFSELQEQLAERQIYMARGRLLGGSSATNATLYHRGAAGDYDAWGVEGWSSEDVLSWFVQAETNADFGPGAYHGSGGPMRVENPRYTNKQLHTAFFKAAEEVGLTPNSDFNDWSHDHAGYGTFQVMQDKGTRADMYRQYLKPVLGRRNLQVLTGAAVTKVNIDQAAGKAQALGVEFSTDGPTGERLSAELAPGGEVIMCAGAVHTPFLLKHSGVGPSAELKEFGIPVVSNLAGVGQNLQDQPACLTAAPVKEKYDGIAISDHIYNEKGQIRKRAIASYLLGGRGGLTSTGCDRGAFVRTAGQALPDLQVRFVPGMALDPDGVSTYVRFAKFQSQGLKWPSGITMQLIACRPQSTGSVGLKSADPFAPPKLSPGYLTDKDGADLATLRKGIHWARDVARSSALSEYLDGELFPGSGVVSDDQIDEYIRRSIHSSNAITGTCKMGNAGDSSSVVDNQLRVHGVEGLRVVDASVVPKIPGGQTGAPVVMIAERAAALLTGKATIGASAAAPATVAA
T2 sequence (A0A248QE08 62-654): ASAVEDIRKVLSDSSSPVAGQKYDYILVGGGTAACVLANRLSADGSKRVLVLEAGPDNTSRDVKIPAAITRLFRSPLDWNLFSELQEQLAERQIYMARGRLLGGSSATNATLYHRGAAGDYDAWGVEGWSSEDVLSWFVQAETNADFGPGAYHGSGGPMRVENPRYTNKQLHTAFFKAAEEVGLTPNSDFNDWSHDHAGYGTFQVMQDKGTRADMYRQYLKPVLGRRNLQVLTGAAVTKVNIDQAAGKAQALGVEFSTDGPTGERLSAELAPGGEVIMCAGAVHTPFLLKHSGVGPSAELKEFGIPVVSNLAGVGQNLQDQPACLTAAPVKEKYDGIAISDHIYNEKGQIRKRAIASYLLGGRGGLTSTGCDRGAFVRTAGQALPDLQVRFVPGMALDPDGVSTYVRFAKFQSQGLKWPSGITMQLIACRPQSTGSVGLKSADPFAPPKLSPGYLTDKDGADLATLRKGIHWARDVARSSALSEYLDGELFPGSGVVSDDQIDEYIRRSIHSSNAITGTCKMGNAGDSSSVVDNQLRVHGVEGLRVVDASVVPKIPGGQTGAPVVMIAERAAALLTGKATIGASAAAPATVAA

Consider `NC(=O)C1=CN([C@@H]2O[C@H](COP(=O)(O)OP(=O)(O)OC[C@H]3O[C@@H](n4cnc5c(N)ncnc54)[C@H](OP(=O)(O)O)[C@@H]3O)[C@@H](O)[C@H]2O)C=CC1` [NADPH], for which, in assay [1], the “effect of added co-factor on alkane synthase activity” value (“effect of added co-factor” for short) was “None of them were found to increase the activity”. On to `CCCCCCCCCCCCCCCCC(=O)OCC(COC(=O)CCCCCCCCCCCCCCCC)OC(=O)CCCCCCCCCCCCCCCC` [TAGs, glyceryl triheptadecanoate], for which the “conversion of substrate by the enzyme in presence of a TAG lipase” value in assay [2] (purified enzyme plus TAG lipase) is “production of hydrocarbons is observed”. In assay [2], the “conversion of substrate by the enzyme (product formed)” value (from here on “conversion … (product formed)”) is given as “cannot use TAGs (triacylglycerol) directly as substrate”.

With `CC(C)CCCC(C)CCCC(C)CCCC(C)CC(=O)O` (stereo not drawn) [Phytanic acid, 3,7,11,15-tetramethylhexadecanoic acid], in assay [2], the “conversion … (product formed)” value is “converted into branched alkanes”. Take `NC(=O)c1ccc[n+]([C@@H]2O[C@H](COP(=O)([O-])OP(=O)(O)OC[C@H]3O[C@@H](n4cnc5c(N)ncnc54)[C@H](OP(=O)(O)O)[C@@H]3O)[C@@H](O)[C@H]2O)c1` [NADP]: the “effect of added co-factor” value in assay [1] is listed as “None of them were found to increase the activity”.

With `CCCCCCCCCCCCCCC[13C](=O)O` [1-^13C-palmitate, reference compound], in assay [3], the “co-product released from labelled substrate” value is reported as “production of ^13CO2”. For the compound `Nc1ncnc2c1ncn2[C@@H]1O[C@H](COP(=O)(O)OP(=O)(O)OP(=O)(O)O)[C@@H](O)[C@H]1O` [ATP], the “effect of added co-factor” value in assay [1] is reported as “None of them were found to increase the activity”.

`[2H]C([2H])([2H])C([2H])([2H])C([2H])([2H])C([2H])([2H])C([2H])([2H])C([2H])([2H])C([2H])([2H])C([2H])([2H])C([2H])([2H])C([2H])([2H])C([2H])([2H])C([2H])([2H])C([2H])([2H])C([2H])([2H])C([2H])([2H])C(=O)O` [Deuterated palmitic acid, perdeuterated (D31) palmitic acid]: the “formation of labelled pentadecane from labelled substrate” value in assay [1] (Chlorella cell homogenate, overnight incubation in sealed vial) is reported as “labelled pentadecane could be detected”. In the case of `O=C(O)CCCCCCCCCCCCCCCO` [16-OH palmitic acid], in assay [2], the “conversion … (product formed)” value is listed as “production of pentadecanol”.
